This is an account of results in BindingDB's records for doi:10.1021/jm00121a004 (Merck Sharp & Dohme Research Laboratories, 1989).

Test [1] in a line: Displacement of 125 I-gastrin from gastrin receptor of guinea pig gastric glands.
Assay in test [2]: as above
This is another data set of the same source.

The nature of test [3]: Displacement of [125 I] CCK-8 from Cholecystokinin type B receptor of guinea pig cerebral cortex.

In test [1], `CCOC(=O)CN1C(=O)C(NC(=O)Nc2ccc(Cl)cc2)N=C(c2ccccc2F)c2ccccc21` (centres undefined) returned an IC50 of 4.1 nM. As for `O=C(Nc1ccc(Cl)cc1)NC1N=C(c2ccccc2F)c2ccccc2NC1=O` (centres undefined), the IC50 in test [2] stood at 640 nM; in test [3], 300 nM. In the same order, the values of `CN1C(=O)[C@@H](NC(=O)c2ccc(Cl)cc2)N=C(c2ccccc2F)c2ccccc21` are 2500 nM and 2900 nM. For `CN1C(=O)[C@H](NC(=O)c2ccc(Cl)cc2)N=C(c2ccccc2F)c2ccccc21`, the IC50 is 7600 nM in test [1] and 11000 nM in test [3]. Taken in the same sequence, the figures for `CN1C(=O)C(NC(=O)Nc2ccc(Cl)cc2)N=C(c2ccccc2)c2ccccc21` [(R)-1-(4-Chloro-phenyl)-3-(1-methyl-2-oxo-5-phenyl-2,3-dihydro-1H-benzo[e][1,4]diazepin-3-yl)-urea] were 22 nM and 23 nM.

The term IC50 denotes the midpoint of a concentration-inhibition curve. Higher therefore signals weaker potency.
